Measurements taken from US11992488B2, “Vasoconstriction compositions and methods of use” (Eye Therapies, LLC, priority 2008, dated 2024).
Where two headings read alike, the source gives them in different places.

Experiments:
[1] = test system: patient with an ocular condition; conditions: brimonidine at 0.01% to […] vs tetrahydrozoline 0.05%, oxymetazoline […], naphazoline […]; one patient, baseline redness 4/4
Source text: In an average clinical situation, baseline redness is at 1-1.5/4.

[2] = test system: patient with an ocular condition of moderate hyperemia; assay: FIGS. 5A-C: reversal of pre-induced rebound hyperemia; type: in vivo, human; conditions: brimonidine at […], right eye after VISINE Original, FIG. 5C
Source text: FIG. 5A is a baseline visual appearance of two eyes of a patient with an ocular condition.

[3] = test system: patients with chronic red eyes; assay: Example 5: chronic red eyes, patient satisfaction assessment; type: in vivo, human; conditions: eld brimonidine at […], drops twice a day for three to five weeks, seven patients
Procedure: The treatment was through drops twice a day for three to five weeks. At the end, patient satisfaction assessment was conducted.

[4] = test system: over-responders wearing contact lenses; conditions: 0.008% brimonidine while wearing contact lenses, of 100 Subjects (over-responders)
Source text: Contact lenses provide a reservoir to the surface of the eye allowing drugs to remain longer on the eye and increase their effectiveness.

over-responders [5] = conditions: contact lenses soaked in 0.008% brimonidine, of 100 Subjects (over-responders)
Source text: Contact lenses are often provided as daily wear lenses stored in a blisterpack solution.

over-responders [6] = conditions: of 100 Subjects (over-responders)
under-responders = conditions: of 100 Subjects (under-responders)
[7] = FIG. 2
[8] = 0.037% brimonidine after wash-out

SMILES: Brc1c(N=C2NCCN2)ccc2nccnc12.O=C(O)C(O)C(O)C(=O)O [brimonidine, 5-bromo-6-(2-imidazolidinylideneamino) quinoxaline L-tartrate]
- scleral whitening brightening effects [1]: significant scleral whitening brightening effects
- reversal of induced rebound hyperemia [2]: reversing the VISINE Original® induced rebound hyperemia
- patient-reported redness [3]: All patients reported reduced redness
- Reduced Redness [4]: 95
- Whitening [4]: 95
- Reduced Redness (over-responders [5]): 95
- Whitening (over-responders [5]): 95
- Reduced Redness (over-responders [6]; […] brimonidine after wash-out): 95
- Whitening (over-responders [6]; […] brimonidine after wash-out): 95
- Reduced Redness (over-responders [6]; […] brimonidine): 85
- Whitening (over-responders [6]; […] brimonidine): 85
- Reduced Redness (under-responders; [8]): 95
- Whitening (under-responders; [8]): 95
- Reduced Redness (under-responders; […] brimonidine): 35
- Whitening (under-responders; […] brimonidine): 35
- concentration at which intraocular pressure reduction is at its maximum [7]: about 0.09%
